According to PMC8496750, “Identification of the organic anion transporting polypeptides responsible for the hepatic uptake of the major metabolite of epyrifenacil, S‐3100‐CA, in mice” (Pharmacology Research & Perspectives, 2021):

Assays:
mouse Oatp1a4 = target: T1, mouse Oatp1a4 (Mus musculus, UniProt Q9EP96); assay: in vitro; settings: 293FT cells transiently transfected with mouse Oatp1a4, probe radiolabeled S‐3100‐CA
T1 sequence (Q9EP96 1-670): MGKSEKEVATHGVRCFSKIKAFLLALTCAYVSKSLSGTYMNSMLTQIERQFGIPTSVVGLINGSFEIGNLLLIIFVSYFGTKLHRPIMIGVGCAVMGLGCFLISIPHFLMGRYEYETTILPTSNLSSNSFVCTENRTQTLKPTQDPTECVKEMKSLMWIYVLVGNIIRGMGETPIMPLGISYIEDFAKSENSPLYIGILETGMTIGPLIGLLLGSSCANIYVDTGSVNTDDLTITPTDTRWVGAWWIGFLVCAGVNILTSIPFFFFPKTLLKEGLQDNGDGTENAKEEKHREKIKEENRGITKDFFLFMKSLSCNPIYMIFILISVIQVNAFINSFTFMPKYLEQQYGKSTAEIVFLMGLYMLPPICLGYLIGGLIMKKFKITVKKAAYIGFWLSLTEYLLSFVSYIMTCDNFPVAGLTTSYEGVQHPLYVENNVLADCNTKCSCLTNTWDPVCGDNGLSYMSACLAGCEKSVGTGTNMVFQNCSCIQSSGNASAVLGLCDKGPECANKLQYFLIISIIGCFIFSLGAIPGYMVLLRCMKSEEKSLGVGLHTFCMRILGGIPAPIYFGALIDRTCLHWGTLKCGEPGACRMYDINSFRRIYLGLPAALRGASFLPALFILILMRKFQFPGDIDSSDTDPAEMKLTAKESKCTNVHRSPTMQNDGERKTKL
Description: (§1) Transport experiments were conducted approximately 24 h post‐transfection. The experiments were initiated by aspirating culture medium and addition of pre‐warmed radiolabeled substrate solution (final 1.0% of acetonitrile or 0.9% of ethanol in phosphate‐buffered saline (PBS[−])) to each well. After a 10‐min incubation, cells were washed twice with 1 ml of ice‐cold PBS(−) and lysed with 700 μl of 1.0 M NaOH for 3 h or more at room temperature. The lysate was transferred to a 1.5‐ml tube, and neutralized with 350 μl of 2.0 M HCl and 350 μl of 2.0% sodium dodecyl sulfate (SDS) solution. From the lysate, 1.0 ml was transferred to a vial containing 10 ml of Emulsifier Scintillator Plus to measure the radioactivity in the LSC. The protein concentration of the cell lysate was also measured using a Pierce™ BCA Protein Assay Kit (Thermo Fisher Scientific, Inc.), which was used to normalize, according to the cell number, the radioactivity in the cell lysate extract. The protein assay was performed in duplicate. Each sample type was assayed in triplicate wells, and each run was performed twice. […] Each sample type was assayed in triplicate wells.

various OATPs = assay: Inhibition of S‐3100‐CA uptake by OATP inhibitors, various OATPs; type: in vitro ADME, mouse, human; settings: inhibitor at 100 μM
Description: 293FT cells were purchased from Thermo Fisher Scientific, Inc.. The cells were grown in Dulbecco's modified Eagle medium (supplemented with 4.5 g/L glucose and 2 mM L‐glutamine) at 37°C, 5% CO2, and 95% humidity. The cells were passaged 3 times per week by harvesting cells using trypsin and plating at a density of 1.0 × 10^4 cells/cm^2 in a 10 cm cell culture plate for maintenance culture. The 293FT cells were detached using trypsin and re‐seeded at a density of 2.5 × 10^4 cells/cm^2 in BioCoat™ Collagen I 6‐well plates (Corning Inc.) for transfection and then treated with 1.2 μg of plasmid vector and 3.2 μl of Lipofectamine™ 2000 Transfection Reagent (Thermo Fisher Scientific, Inc.) according to the manufacturer's instructions. After a 3‐h treatment, the transfection medium was replaced with a fresh cell culture medium and incubated at 37°C with 95% humidity and 5% CO2 until ready for the assay.
Transport experiments were conducted approximately 24 h post‐transfection. […] From the lysate, 1.0 ml was transferred to a vial containing 10 ml of Emulsifier Scintillator Plus to measure the radioactivity in the LSC. The protein concentration of the cell lysate was also measured using a Pierce™ BCA Protein Assay Kit (Thermo Fisher Scientific, Inc.), which was used to normalize, according to the cell number, the radioactivity in the cell lysate extract. […]

mouse Oatp1a1 = target: T2, mouse Oatp1a1 (Mus musculus, UniProt Q9QXZ6); assay: in vitro; settings: 293FT cells transiently transfected with mouse Oatp1a1, probe radiolabeled S‐3100‐CA
T2 sequence (Q9QXZ6 1-670): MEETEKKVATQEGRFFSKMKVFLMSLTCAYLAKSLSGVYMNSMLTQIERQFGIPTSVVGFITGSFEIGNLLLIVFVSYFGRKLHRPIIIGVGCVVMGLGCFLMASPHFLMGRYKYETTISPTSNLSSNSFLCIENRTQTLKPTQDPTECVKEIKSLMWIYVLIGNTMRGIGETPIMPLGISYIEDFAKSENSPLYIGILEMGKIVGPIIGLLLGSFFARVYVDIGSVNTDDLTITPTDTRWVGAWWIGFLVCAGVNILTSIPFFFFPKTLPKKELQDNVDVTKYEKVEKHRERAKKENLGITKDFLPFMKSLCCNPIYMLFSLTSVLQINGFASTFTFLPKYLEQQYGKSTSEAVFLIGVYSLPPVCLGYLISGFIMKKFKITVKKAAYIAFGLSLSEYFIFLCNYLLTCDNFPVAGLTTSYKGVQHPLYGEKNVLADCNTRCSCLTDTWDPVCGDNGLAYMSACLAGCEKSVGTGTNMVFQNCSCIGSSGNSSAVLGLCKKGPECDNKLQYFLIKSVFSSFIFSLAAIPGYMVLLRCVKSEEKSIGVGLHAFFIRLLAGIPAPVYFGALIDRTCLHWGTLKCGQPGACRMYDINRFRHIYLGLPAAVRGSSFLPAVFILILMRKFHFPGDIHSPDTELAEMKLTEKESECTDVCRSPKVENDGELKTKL
Description: as §1

inhibition at 10 min, 10 µM (mouse Oatp1a4): > 50%
inhibition at 10 min, 10 µM (mouse Oatp1a1): > 50%
SMILES: CO[C@H]1/C=C/O[C@@]2(C)Oc3c(C)c(O)c4c(O)c(cc(O)c4c3C2=O)NC(=O)/C(C)=C\C=C\[C@H](C)[C@H](O)[C@@H](C)[C@@H](O)[C@@H](C)[C@H](OC(C)=O)[C@@H]1C [RSV, rifamycin SV]
Inhibition of S‐3100‐CA uptake (in words) (various OATPs): inhibited uptake via all OATPs other than human OATP2B1
